Test results reported in the NIST ThermoML archive (doi:10.1021/je800150h).

Experiment: mn = molality of the nth substance listed, in mol/kg
Conditions: 101 kPa, Liquid; for electrical conductivity: CyberScan CON500 conductivity meter

[Cl-].[Li+] [lithium chloride] + O
Conditions	electrical conductivity [S/m]	mass density [kg/m3]	viscosity [mPa·s]
268.1 K, m1 = 0.5	–	1013.4	2.273
268.1 K, m1 = 1	–	1024.4	2.554
268.1 K, m1 = 2	–	1047.1	2.831
268.1 K, m1 = 3	–	1067.8	3.191
268.1 K, m1 = 4.5	–	1095.9	3.649
268.1 K, m1 = 6	–	1121.7	4.461
268.1 K, m1 = 8	–	1155.4	6.735
268.1 K, m1 = 11	–	1200.2	10.85
268.1 K, m1 = 14	–	1240.7	18.98
268.1 K, m1 = 17.8	–	1288.4	28.66
273.1 K, m1 = 0.5	–	1013.2	1.944
273.1 K, m1 = 1	–	1024.4	2.107
273.1 K, m1 = 2	–	1046.9	2.37
273.1 K, m1 = 3	–	1067.4	2.681
273.1 K, m1 = 4.5	–	1095	3.133
273.1 K, m1 = 6	–	1121.2	3.815
273.1 K, m1 = 8	–	1153.7	5.744
273.1 K, m1 = 11	–	1198.7	9.191
273.1 K, m1 = 14	–	1239.1	15.82
273.1 K, m1 = 17.8	–	1286.4	24.99
278.1 K, m1 = 0.5	2.61	–	1.663
278.1 K, m1 = 1	4.64	1024	1.784
278.1 K, m1 = 2	7.64	1046.3	2
278.1 K, m1 = 3	9.59	1066.4	2.266
278.1 K, m1 = 4.5	11.5	1094.1	2.69
278.1 K, m1 = 6	12	1119.8	3.258
278.1 K, m1 = 8	11.5	1152.6	4.899
278.1 K, m1 = 11	9.37	1197.1	7.784
278.1 K, m1 = 14	6.99	1237.4	13.17
278.1 K, m1 = 17.8	4.71	1284.2	21.79
283.1 K, m1 = 0.5	2.99	1012.5	1.424
283.1 K, m1 = 1	5.2	1023.3	1.518
283.1 K, m1 = 2	8.61	1045.3	1.701
283.1 K, m1 = 3	11	1065.4	1.936
283.1 K, m1 = 4.5	13	1092.8	2.303
283.1 K, m1 = 6	13.6	1118.8	2.777
283.1 K, m1 = 8	13.1	1151.4	4.17
283.1 K, m1 = 11	10.7	1195.6	6.579
283.1 K, m1 = 14	8.01	1235.8	10.97
283.1 K, m1 = 17.8	5.52	1282.2	19.66
288.15 K, m1 = 0.5	3.35	1011.6	1.243
288.15 K, m1 = 1	5.87	1022.2	1.346
288.15 K, m1 = 2	9.62	1044.1	1.502
288.15 K, m1 = 3	12.3	1064.3	1.729
288.15 K, m1 = 4.5	14.5	1091.5	2.034
288.15 K, m1 = 6	15.2	1117.4	2.452
288.15 K, m1 = 8	14.6	1149.8	3.602
288.15 K, m1 = 11	12.1	1194	5.63
288.15 K, m1 = 14	9.09	1234.1	9.142
288.15 K, m1 = 17.8	6.45	1280.2	17.14
293.15 K, m1 = 0.5	3.74	1010.8	1.087
293.15 K, m1 = 1	6.53	1021.4	1.16
293.15 K, m1 = 2	10.7	1043	1.308
293.15 K, m1 = 3	13.7	1063.1	1.495
293.15 K, m1 = 4.5	16.1	1090.5	1.777
293.15 K, m1 = 6	16.9	1116.1	2.131
293.15 K, m1 = 8	16.3	1148.5	3.199
293.15 K, m1 = 11	13.6	1192.5	4.898
293.15 K, m1 = 14	10.4	1232.6	7.966
293.15 K, m1 = 17.8	7.44	1278.3	14.89
298.15 K, m1 = 0.5	4.15	1009.4	0.97
298.15 K, m1 = 1	7.29	–	1.052
298.15 K, m1 = 2	12	1041.8	1.165
298.15 K, m1 = 3	15.2	1061.8	1.339
298.15 K, m1 = 4.5	17.7	1089.1	1.586
298.15 K, m1 = 6	18.7	1114.6	1.906
298.15 K, m1 = 8	17.9	1147	2.8
298.15 K, m1 = 11	15.1	1190.9	4.292
298.15 K, m1 = 14	11.7	1230.7	6.899
298.15 K, m1 = 17.8	8.5	1276.4	12.68
303.15 K, m1 = 0.5	4.58	1008.1	0.866
303.15 K, m1 = 1	8	1018.7	0.929
303.15 K, m1 = 2	13.2	–	1.047
303.15 K, m1 = 3	16.7	1060.3	1.239
303.15 K, m1 = 4.5	19.4	1087.7	1.422
303.15 K, m1 = 6	–	1113.1	1.713
303.15 K, m1 = 8	19.7	1145.4	2.486
303.15 K, m1 = 11	16.7	1189.3	3.812
303.15 K, m1 = 14	13.1	1228.9	6.073
303.15 K, m1 = 17.8	9.61	1274.6	11.54
308.15 K, m1 = 0.5	4.99	1006.6	0.782
308.15 K, m1 = 1	8.7	–	0.834
308.15 K, m1 = 2	14.4	1038.7	0.941
308.15 K, m1 = 3	18.2	1058.7	1.083
308.15 K, m1 = 4.5	–	1085.9	1.28
308.15 K, m1 = 6	–	1111.5	1.532
308.15 K, m1 = 8	–	1143.9	2.256
308.15 K, m1 = 11	18.3	1187.8	3.407
308.15 K, m1 = 14	14.5	1227.1	5.332
308.15 K, m1 = 17.8	10.9	1272.8	10.46
313.15 K, m1 = 0.5	5.43	1005.1	0.722
313.15 K, m1 = 1	9.45	1015.8	0.774
313.15 K, m1 = 2	15.6	–	0.866
313.15 K, m1 = 3	19.7	1056.9	0.977
313.15 K, m1 = 4.5	–	1084.4	1.177
313.15 K, m1 = 6	–	1110.1	1.406
313.15 K, m1 = 8	–	1142.3	2.071
313.15 K, m1 = 11	20	1186.1	3.091
313.15 K, m1 = 14	16	1225.3	4.812
313.15 K, m1 = 17.8	12.3	1270.7	9.741
318.15 K, m1 = 0.5	5.85	1003.5	0.668
318.15 K, m1 = 1	10.2	–	0.714
318.15 K, m1 = 2	16.8	1035.2	0.802
318.15 K, m1 = 3	–	1055.5	0.91
318.15 K, m1 = 4.5	–	1083	1.076
318.15 K, m1 = 6	–	1108.4	1.293
318.15 K, m1 = 8	–	1140.7	1.919
318.15 K, m1 = 11	–	1184.3	2.869
318.15 K, m1 = 14	17.5	1223.5	4.412
318.15 K, m1 = 17.8	13.6	1268.9	8.984
323.15 K, m1 = 0.5	6.28	1002.2	0.625
323.15 K, m1 = 1	11	1012.5	0.665
323.15 K, m1 = 2	18.1	1033.8	0.747
323.15 K, m1 = 3	–	–	0.859
323.15 K, m1 = 4.5	–	1081.1	1.003
323.15 K, m1 = 6	–	1106.4	1.194
323.15 K, m1 = 8	–	1138.8	1.742
323.15 K, m1 = 11	–	1182.6	2.69
323.15 K, m1 = 14	19.1	1221.8	4.123
323.15 K, m1 = 17.8	15.1	1266.9	8.265
